Experimental data: patent US6756229B1, “Human cell line showing stable expression of cytochromes P450” (Takeda Chemical Industries, Ltd., priority 1999, dated 2004)

Assays:
CYP2B6 = target: T1, CYP2B6 (Homo sapiens, UniProt P20813); experiment: Kinetic analysis, 7-ethoxycoumarin O-deethylase activity in Hepc/2B6.68; format: cell-based
T1 construct: expressed in transfected cells
T1 sequence (P20813 1-491): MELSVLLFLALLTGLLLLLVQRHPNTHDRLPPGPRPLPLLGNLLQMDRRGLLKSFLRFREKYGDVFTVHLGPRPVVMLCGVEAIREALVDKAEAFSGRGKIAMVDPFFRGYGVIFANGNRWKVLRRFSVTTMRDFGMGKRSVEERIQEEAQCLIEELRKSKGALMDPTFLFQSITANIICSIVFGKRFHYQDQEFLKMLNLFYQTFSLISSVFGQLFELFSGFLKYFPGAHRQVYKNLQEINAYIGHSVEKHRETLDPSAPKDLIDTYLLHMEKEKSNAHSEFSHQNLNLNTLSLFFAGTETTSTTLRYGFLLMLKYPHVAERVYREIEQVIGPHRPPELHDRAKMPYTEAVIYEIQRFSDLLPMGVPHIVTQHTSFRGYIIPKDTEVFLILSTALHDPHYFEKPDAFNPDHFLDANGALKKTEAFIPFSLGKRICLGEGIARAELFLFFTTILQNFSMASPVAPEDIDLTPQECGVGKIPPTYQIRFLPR
Procedure: The reaction solution was diluted to 10-fold with 0.1M Tris-HCl (pH 7.4) and fluorescent intensity was measured at an excited wavelength of 390 nm and a fluorescence wavelength of 440 nm, using a spectrofluorometer (Hitatchi Spectrofluorometer F-2000) to quantify 7-hydroxycoumarin formed. The product purchased from Extrasynthese was used as the standard substance for 7-hydroxycoumarin.

HepG2 [1] = experiment: LDH leakage test, acetaminophen in HepG2; format: cell-based, human
Procedure: (§1) Two plates each with the same design as in the MTT assay were prepared (for determination of LDH activity in the culture supernatant and for determination of LDH activity in the culture supernatant+LDH activity in the cells). After incubating for 3 days in a CO2 incubator, 10 μl of the supernatant was taken from each well of one plate (for determination of LDH activity in the supernatant), transferred to another 96-well plate, and 40 μl of distilled water was further added. On the other hand, 10 μl of 10% Triton X100 (Wako Junyaku K. K. ) was added to each well of another plate (for determination of LDH activity in the culture supernatant+LDH activity in the cells), followed by shaking and incubation at 37° C. for 45 minutes. After centrifuging at 1500 rpm for 5 minutes, 10 μl of the supernatant was taken from each well, transferred to another 96-well plate, and 40 μl of distilled water was further added. The LDH activity of each well in these plates was measured using Cytotox 96 Non-Radioactive Cytotoxicity Assay Kit (Promega). Multiscanning MS-UV was used for the measurement of absorbance. A ratio of the LDH activity in the supernatant to (the LDH activity in the supernatant+ the LDH activity in the cells) was made an LDH leakage rate.

HepG2 [2] = experiment: MTT assay, cytotoxicity of acetaminophen in HepG2; format: cell-based, human; conditions: HepG2, without BSO, 4 days incubation (FIG. 1)
Procedure: (§2) HepG2 or CYP2E1-expressing cells (Hepc/2E1.3-8) (4×10^5 cells/ml) were incubated with acetaminophen (Wako Junyaku K. K. ) diluted to a given concentration in DMEM medium supplemented with 5% FCS in a CO2 incubator. In the test to terminate glutathione conjugation, L-Buthionine [S,R]-Sulfoximine (BSO, Sigma) was added to the medium in a final concentration of 100 μM. After incubation for 4 days, 20 μl of a solution of 3-(4,5-dimethyl-2-thiazolyl)-2,5-diphenyl-2H-tetrazolium bromide (MTT, Sigma) adjusted to 1 mg/ml with PBS (Flow) was added to each well followed by incubation at 37° C. for 3 hours. Next, 100 μl of 0.01N HCl solution containing 10% SDS was added to each well. After incubation at 37° C. overnight, absorbance was measured at 590 nm.

[3] = tested on: CYP2E1-expressing cells (Hepc/2E1.3-8); experiment: LDH leakage test, acetaminophen in CYP2E1-expressing cells; format: cell-based, human
Procedure: as §1

[4] = tested on: CYP2E1-expressing cells (Hepc/2E1.3-8); experiment: MTT assay, cytotoxicity of acetaminophen in CYP2E1-expressing cells; format: cell-based, human; conditions: 4 days incubation (FIG. 1)
Procedure: as §2

CYP2A6 = target: T2, CYP2A6 (Homo sapiens, UniProt P11509); experiment: Kinetic analysis, coumarin 7-hydroxylase activity in Hepc/2A6L.9; format: cell-based
T2 construct: expressed in transfected cells
T2 sequence (P11509 1-494): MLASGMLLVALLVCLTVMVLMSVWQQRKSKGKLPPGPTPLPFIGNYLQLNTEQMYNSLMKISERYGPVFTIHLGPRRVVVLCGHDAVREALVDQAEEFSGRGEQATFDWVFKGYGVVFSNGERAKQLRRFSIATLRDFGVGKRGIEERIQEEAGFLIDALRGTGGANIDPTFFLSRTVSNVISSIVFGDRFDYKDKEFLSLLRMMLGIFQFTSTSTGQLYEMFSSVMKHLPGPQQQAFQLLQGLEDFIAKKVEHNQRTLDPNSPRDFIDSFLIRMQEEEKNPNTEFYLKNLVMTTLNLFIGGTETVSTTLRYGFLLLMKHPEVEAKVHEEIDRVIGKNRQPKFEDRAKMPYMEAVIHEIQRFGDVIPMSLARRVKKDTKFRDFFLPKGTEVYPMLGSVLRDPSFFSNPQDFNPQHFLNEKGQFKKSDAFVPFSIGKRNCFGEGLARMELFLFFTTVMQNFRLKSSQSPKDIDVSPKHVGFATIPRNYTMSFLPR
From the text: The product purchased from Extrasynthese was used as the standard substance for 7-hydroxycoumarin.

HepG2 [5] = conditions: HepG2, 4 days incubation (printed FIG. 4)
Procedure: (§3) After incubation for 4 days, 20 μl of a MTT (Sigma) solution adjusted to 1 mg/ml with PBS (Flow) was added to each well followed by incubation at 37° C. for 3 hours. Next, 100 μl of 0.01N HCl solution containing 10% SDS was added to each well. After incubation at 37° C. overnight, absorbance was measured at 590 nm.
Two plates each with the same design as in the MTT assay were prepared (for determination of LDH activity in the culture supernatant and for determination of LDH activity in the culture supernatant+LDH activity in the cells). After incubating for 4 days in a CO2 incubator, 10 μl of the supernatant was taken from each well of one plate (for determination of LDH activity in the supernatant), transferred to another 96-well plate, and 40 μl of distilled water was further added. On the other hand, 10 μl of 10% Triton X100 was added to each well of another plate (for determination of LDH activity in the culture supernatant+LDH activity in the cells), followed by shaking and incubation at 37° C. for 45 minutes. After centrifuging at 1500 rpm for 5 minutes, 10 μl of the supernatant was taken from each well, transferred to another 96-well plate, and 40 μl of distilled water was further added. The LDH activity of each well in these plates was measured using Cytotox 96 Non-Radioactive Cytotoxicity Assay Kit (Promega). Multiscanning MS-UV was used for the measurement of absorbance. […]

[6] = tested on: CYP2B6-expressing cells (Hepc/2B6.68); conditions: Hepc/2B6.68, 4 days incubation (printed FIG. 5)
Procedure: as §3

[7] = tested on: CYP2B6-expressing cells (Hepc/2B6.68); conditions: Hepc/2B6.68, 4 days incubation; plateau above 2 mM
Procedure: Two plates each with the same design as in the MTT assay were prepared (for determination of LDH activity in the culture supernatant and for determination of LDH activity in the culture supernatant+LDH activity in the cells). After incubating for 4 days in a CO2 incubator, 10 μl of the supernatant was taken from each well of one plate (for determination of LDH activity in the supernatant), transferred to another 96-well plate, and 40 μl of distilled water was further added. On the other hand, 10 μl of 10% Triton X100 was added to each well of another plate (for determination of LDH activity in the culture supernatant+LDH activity in the cells), followed by shaking and incubation at 37° C. for 45 minutes. After centrifuging at 1500 rpm for 5 minutes, 10 μl of the supernatant was taken from each well, transferred to another 96-well plate, and 40 μl of distilled water was further added. The LDH activity of each well in these plates was measured using Cytotox 96 Non-Radioactive Cytotoxicity Assay Kit (Promega). Multiscanning MS-UV was used for the measurement of absorbance. A ratio of the LDH activity in the supernatant to (the LDH activity in the supernatant + the LDH activity in the cells) was made an LDH leakage rate.

CYP2E1 = CYP2E1 (Homo sapiens, UniProt P05181); conditions: Hepc/2E1.3-8 cells incubated 3 days with the substance; 500 μM p-nitrophenol (FIG. 7)
Sequence of CYP2E1 (P05181 whole entry): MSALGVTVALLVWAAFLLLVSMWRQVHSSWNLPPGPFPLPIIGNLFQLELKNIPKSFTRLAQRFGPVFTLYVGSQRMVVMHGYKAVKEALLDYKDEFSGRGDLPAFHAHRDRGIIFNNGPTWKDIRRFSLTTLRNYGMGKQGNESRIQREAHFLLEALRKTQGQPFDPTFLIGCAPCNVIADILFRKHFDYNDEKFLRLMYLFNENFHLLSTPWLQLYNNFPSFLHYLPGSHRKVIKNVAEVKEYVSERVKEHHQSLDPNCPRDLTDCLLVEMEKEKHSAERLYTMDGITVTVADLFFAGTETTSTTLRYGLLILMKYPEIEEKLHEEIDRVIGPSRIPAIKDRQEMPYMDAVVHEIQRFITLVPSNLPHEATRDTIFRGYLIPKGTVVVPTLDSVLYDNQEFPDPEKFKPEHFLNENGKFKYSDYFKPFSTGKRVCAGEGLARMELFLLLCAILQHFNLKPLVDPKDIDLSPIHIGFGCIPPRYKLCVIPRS
Procedure: The medium was suctioned and the cells attached to the plate were washed with Phenol Red-free DMEM medium. Subsequently, p-nitrophenol previously diluted to 500 μM was added in 500 μl/well. After reacting at 37° C., the reaction solution was recovered from each well. To 100 μl of the reaction solution 50 μl of NaOH (Wako Junyaku K. K. ) was added, and insoluble matters were removed by centrifugation. By measuring absorbance at 540 nm-620 nm with multi-scanning MS-UV (Labo Systems), 4-nitrocatechol formed was quantified.

CYP3A4 = CYP3A4 (Homo sapiens, UniProt P08684); experiment: Kinetic analysis, testosterone 6β-hydroxylase activity in Hepc/3A4.5
Sequence of CYP3A4 (P08684 whole entry): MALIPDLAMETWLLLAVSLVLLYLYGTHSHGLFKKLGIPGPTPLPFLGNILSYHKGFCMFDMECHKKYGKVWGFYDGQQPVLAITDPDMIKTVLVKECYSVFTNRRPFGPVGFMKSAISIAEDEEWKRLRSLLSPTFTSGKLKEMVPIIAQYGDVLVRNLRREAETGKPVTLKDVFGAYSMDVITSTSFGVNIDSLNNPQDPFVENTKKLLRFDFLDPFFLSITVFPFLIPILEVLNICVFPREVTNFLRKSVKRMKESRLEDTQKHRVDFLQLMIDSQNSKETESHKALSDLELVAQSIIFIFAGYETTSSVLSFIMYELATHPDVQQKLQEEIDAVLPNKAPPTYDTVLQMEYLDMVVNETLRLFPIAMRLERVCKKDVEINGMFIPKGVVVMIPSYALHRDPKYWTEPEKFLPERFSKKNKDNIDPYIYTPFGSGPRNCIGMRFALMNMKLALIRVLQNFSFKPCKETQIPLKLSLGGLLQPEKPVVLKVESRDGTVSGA
Procedure: Subsequently, testosterone previously diluted to 100 μM was added in 500 μl/well.
A program was made up to set for a linear gradient of 0-100% solution B in 0-20 minutes, 100% solution B in 20-30 minutes and since then 100% solution.

[8] = tested on: CYP1A1-expressing cells (Hepc/1A1.4); experiment: MTT assay, cytotoxicity of benzanthracene in CYP1A1-expressing cells; format: cell-based, human; conditions: Hepc/1A1.4 compared with HepG2, 4 days incubation, concentration-dependent (FIG. 3)
Procedure: CYP1A1-expressing cells (Hepc/1A1.4) (4×10^5 cells/ml) were incubated with benzanthracene (Sigma) diluted to a given concentration in DMEM medium supplemented with 5% FCS in a CO2 incubator. After incubation for 4 days, 20 μl of a MTT (Sigma) solution adjusted to 1 mg/ml with PBS (Flow) was added to each well followed by incubation at 37° C. for 3 hours. Next, 100 μl of 0.01N HCl solution containing 10% SDS was added to each well. After incubation at 37° C. overnight, absorbance was measured at 590 nm.

CCOc1ccc2ccc(=O)oc2c1 [7-ethoxycoumarin]
Vmax (CYP2B6; Lineweaver-Burk plot): 80 pmol/min/mg | Km (CYP2B6; human, Hepc/2B6.68 cells expressing CYP2B6, Lineweaver-Burk plot): 81 µM

CC(=O)Nc1ccc(O)cc1 [Acetaminophen, acetaminophen]
effect of the presence of BSO on LDH leakage (HepG2 [1]; HepG2 + 100 μM BSO (FIG. 2)): Any effect expected in the presence of BSO was not noted | leakage of LDH (HepG2 [1]; HepG2, without BSO, 3 days incubation (FIG. 2)): slight leakage of LDH | MTT activity (HepG2 [2]): slight decrease of the MTT activity | enhancement of sensitivity to acetaminophen in the presence of BSO (LDH leakage) ([3]; Hepc/2E1.3-8 + 100 μM BSO (glutathione exhausted), versus without BSO): approximately 4 times | leakage of LDH ([3]; Hepc/2E1.3-8, without BSO, 3 days incubation (FIG. 2)): slight leakage of LDH | MTT activity in the presence of BSO ([4]; Hepc/2E1.3-8 + 100 μM BSO): increased sensitivity to acetaminophen | MTT activity ([4]; Hepc/2E1.3-8, without BSO): slight decrease of the MTT activity

O=c1ccc2ccccc2o1 [Coumarin]
Vmax (CYP2A6; Lineweaver-Burk plot): 412 pmol/min/mg | Km (CYP2A6; human, Hepc/2A6L.9 cells expressing CYP2A6, Lineweaver-Burk plot): 11.1 µM

O=P1(N(CCCl)CCCl)NCCCO1 (stereo not shown) [Cyclophosphamide, cyclophosphamide]
cytotoxicity (HepG2 [5]): slightly cytotoxic | MTT activity [6]: slight decrease of the MTT activity concentration-dependently | leakage of LDH [7]: concentration-dependently in the concentration up to 2 mM

C[S+](C)[O-] [DMSO, dimethylsulfoxide]
CYP2E1 activity induction (p-nitrophenol hydroxylation, 4-nitrocatechol formed) (CYP2E1): the enzyme activity increases

C[C@]12CC[C@H]3[C@@H](CCC4=CC(=O)CC[C@@]43C)[C@@H]1CC[C@@H]2O [Testosterone]
Vmax (CYP3A4; Hepc/3A4.5, testosterone 6β-hydroxylase activity, Lineweaver-Burk plot): 71 pmol/min/mg | Km (CYP3A4; human, Hepc/3A4.5 cells expressing CYP3A4): 96 µM

c1ccc2cc3c(ccc4ccccc43)cc2c1 [benzanthracene]
reduction in the MTT activity [8]: more potent reduction in the MTT activity

CCO [ethanol]
CYP2E1 activity induction (p-nitrophenol hydroxylation, 4-nitrocatechol formed) (CYP2E1): the enzyme activity increases
